Measurements published in paper PMC3806773, “Discovery of P1736, a Novel Antidiabetic Compound That Improves Peripheral Insulin Sensitivity in Mice Models” (PLoS ONE, 2013).
Marks after values point to notes of the source that are not given here.

Tests used:
[1] = biological target: T1, protein tyrosine phosphatase-1b (PTP-1B) (Homo sapiens, UniProt P18031); assay: PTP-1B activity (MDS Pharma); format: biochemical
T1 construct: MDS Pharma, Korea (contract laboratory)
T1 sequence (P18031 1-435): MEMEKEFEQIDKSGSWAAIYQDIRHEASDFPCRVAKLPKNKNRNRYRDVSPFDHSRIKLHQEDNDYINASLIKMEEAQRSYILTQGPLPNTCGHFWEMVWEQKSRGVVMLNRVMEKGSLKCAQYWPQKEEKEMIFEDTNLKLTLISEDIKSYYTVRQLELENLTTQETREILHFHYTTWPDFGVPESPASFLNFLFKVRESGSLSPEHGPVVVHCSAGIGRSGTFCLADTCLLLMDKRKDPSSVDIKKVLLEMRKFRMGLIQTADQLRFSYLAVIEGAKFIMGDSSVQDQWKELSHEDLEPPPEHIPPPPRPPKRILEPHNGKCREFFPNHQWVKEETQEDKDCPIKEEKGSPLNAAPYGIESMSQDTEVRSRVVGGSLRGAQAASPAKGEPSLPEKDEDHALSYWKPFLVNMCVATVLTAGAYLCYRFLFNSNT
Method: (§1) Transactivation activity against human PPARγ and PPARα receptors was determined using luciferase reporter gene assays in the Laboratory of CloneGen Biotechnology, Michigan, USA. Activities of protein tyrosine phosphatase-1b (PTP-1B) and adenosine mono phosphate activated kinase (AMPK) were evaluated at MDS Pharma, Korea. Evaluation of activity against human 11-Hydroxysteroid dehydrogenase-1 was outsourced to University of Edinburg, UK which used a cell based method.

[2] = test system: adenosine mono phosphate activated kinase (AMPK); assay: AMPK activity (MDS Pharma); format: biochemical
Method: as §1

db/db mice [3] = assay: Antidiabetic activity in db/db mice, once daily oral dosing; format: in vivo
Method: After two weeks of acclimatization, db/db mice were deprived of food for 4h. Their weights were measured and blood was obtained by retro-orbital puncture for the determination of plasma glucose. The animals were randomized into groups (7-10/group) based on body weight and plasma glucose levels. Animals were dosed orally once a day, between 9.00 -10.00am for 15 consecutive days, with either P1736 (150mg/kg) or metformin (150mg/kg) or 0.5% carboxy methyl cellulose (CMC) vehicle. The dose of 150 mg/kg was chosen for once-a-day dosing of P1736, on the basis of its pharmacokinetic profile and to maintain high plasma concentrations. Body weight was measured daily. On days 10 and 15, blood samples were collected at the end of the 4h fasting after drug administration. Plasma samples were analysed for biochemical parameters, by enzymatic methods using autoanalyser 902(Hitachi instruments, Japan). Plasma adiponectin levels were measured using mouse ELISA kits (Millipore Inc. USA).

db/db mice [4] = assay: Dose response experiment in db/db mice, twice daily dosing; format: in vivo
Method: The doses were given during 8.00-9.00 am and 5.00-6.00 pm daily. On day 15, blood was collected and plasma samples were analysed as described above.

ob/ob mice = assay: Antidiabetic activity in ob/ob mice; format: in vivo; details: for Liver weight: vehicle 4.3 ± 0.2; for Plasma AST: vehicle 468 ± 38; for Plasma ALT: vehicle 740 ± 71
Method: After one week of acclimatization, ob/ob mice (8/group) were dosed orally, twice daily for 10 consecutive days, with either P1736 (100 or 200 mg/kg) or vehicle. Rest of the procedure is exactly the same as that used for db/db mice and as described above.
(§2) On day 9, food was withheld for 4 h and blood was collected for the analysis of plasma chemistry and plasma insulin levels. On days 12 and 13, 3-4 animals from each group were sacrificed and soleus muscles were excised. Radiolabelled glucose uptake was measured in the isolated soleus muscles by the method of Zierath and colleagues. Plasma Insulin was estimated using mouse ELISA kit (Linco, USA)

[5] = test system: soleus muscles of ob/ob mice; assay: Ex vivo muscle glucose uptake in ob/ob mice; details: for Glucose Uptake in soleus muscle (% Increase): ex vivo after chronic administration
Method: as §2

Wistar rats = assay: Plasma volume in rats (Evans Blue Dye method)
human PPARα receptor = biological target: T2, human PPARα receptor (Homo sapiens, UniProt Q07869); assay: PPARα transactivation luciferase reporter gene assay in HEK-293 cells; details: upto 10 μM
T2 sequence (Q07869 239-466 limits assumed): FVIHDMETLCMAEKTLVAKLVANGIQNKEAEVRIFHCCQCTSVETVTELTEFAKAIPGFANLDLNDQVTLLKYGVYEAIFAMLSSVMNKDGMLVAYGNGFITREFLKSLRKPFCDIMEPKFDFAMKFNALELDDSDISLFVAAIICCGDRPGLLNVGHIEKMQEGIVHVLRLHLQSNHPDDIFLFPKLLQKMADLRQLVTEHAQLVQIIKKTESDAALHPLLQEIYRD

human PPARγ receptor = biological target: T3, human PPARγ receptor (Homo sapiens, UniProt P37231); assay: PPARγ transactivation luciferase reporter gene assay in HEK-293 cells; details: upto 10 μM
T3 sequence (P37231 238-503 limits assumed): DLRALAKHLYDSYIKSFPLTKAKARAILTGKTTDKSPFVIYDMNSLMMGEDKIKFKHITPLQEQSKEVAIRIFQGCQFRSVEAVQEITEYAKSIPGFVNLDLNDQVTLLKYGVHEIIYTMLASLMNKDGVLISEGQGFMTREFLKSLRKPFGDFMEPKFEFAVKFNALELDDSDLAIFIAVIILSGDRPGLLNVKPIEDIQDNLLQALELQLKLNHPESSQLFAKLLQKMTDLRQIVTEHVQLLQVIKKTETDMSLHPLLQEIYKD

[6] = 150 mg/kg oral once daily, day 10
[7] = 150 mg/kg oral once daily, day 15

O=S(=O)(Nc1cnc(Oc2cc3ccccc3cn2)c(Cl)c1)c1ccc(Cl)cc1Cl [P1736]
activity against PTP-1B [1]: no significant activity | activity against AMPK [2]: no significant activity | decrease in plasma triglyceride (db/db mice [3]; [6]): 30% | reduction in plasma glucose (db/db mice [3]; [6]): 35% | decrease in plasma triglyceride (db/db mice [3]; [7]): 38% | reduction in plasma glucose (db/db mice [3]; [7]): 35% | plasma adiponectin levels (db/db mice [3]; 150 mg/kg oral once daily, vehicle 7.5 ± 0.44): 12.4 ± 0.33 µg/mL | effect on body weight (db/db mice [3]; 150 mg/kg, 15 days): did not affect body weight | Liver weight (db/db mice [3]; 150mg/kg, vehicle 1.8 + 0.10): 2.1+ 0.10 gm | Plasma ALT (db/db mice [3]; 150mg/kg, vehicle 91.2 + 12.7): 99.0 + 8.5 U/L | Plasma AST (db/db mice [3]; 150mg/kg, vehicle 100.6 + 8.8): 84.6 + 2.6 U/L | reduction of high initial plasma glucose (db/db mice [3]; db/db mice with high initial plasma glucose, 150 mg/kg once daily, 10 days): 23% | effect on plasma glucose and triglyceride levels over the dose range (db/db mice [4]; 5 mg/kg to 200 mg/kg twice daily, EC50 could not be established): all the doses reduced plasma glucose and triglyceride levels | weight gain (db/db mice [4]; 5 mg/kg twice daily, 15 days): did not exhibit any tendency towards weight gain | decrease in plasma glucose (db/db mice [4]; 5 mg/kg twice daily, day 15): 40% | decrease in plasma triglyceride (db/db mice [4]; 5 mg/kg twice daily, day 15): 32% | reduction in plasma glucose (ob/ob mice; 100 mg/kg twice daily, 10 days): 30% | lowering of plasma insulin levels (ob/ob mice; 100 mg/kg, 10 days): 50% | Liver weight (ob/ob mice; 100mg/kg): 4.6 ± 0.2 gm | Plasma AST (ob/ob mice; 100mg/kg): 547 ± 50 U/L | Plasma ALT (ob/ob mice; 100mg/kg): 857 ± 72 U/L | reduction in plasma glucose (ob/ob mice; 200 mg/kg twice daily, 10 days): 32% | Liver weight (ob/ob mice; 200mg/kg): 4.4 ± 0.3 gm | Plasma AST (ob/ob mice; 200mg/kg): 470 ± 57 U/L | Plasma ALT (ob/ob mice; 200mg/kg): 668 ± 92 U/L | decrease in glucose (ob/ob mice; ob/ob mice, dose not stated (abstract)): 30-35% | changes in body weight (ob/ob mice; upto 200 mg/kg twice daily): did not induce adverse changes | Plasma Glucose (% Reduction) ([5]; 1.0 mg/kg): 34% | Glucose Uptake in soleus muscle (% Increase) ([5]; 1.0 mg/kg): 70% | Glucose Uptake in soleus muscle (% Increase) ([5]; 1.0 mg/kg, listed as P1736-05): 70* % | Plasma Glucose (% Reduction) ([5]; 5.0 mg/kg): 35% | Glucose Uptake in soleus muscle (% Increase) ([5]; 5.0 mg/kg): 67% | Glucose Uptake in soleus muscle (% Increase) ([5]; 5.0 mg/kg, listed as P1736-05): 67* % | normalized plasma volume (Wistar rats; female rats, 100 mg/kg once daily 28 days, control 35.56 ± 1.46): 30.91 ± 0.03 mL/kg | normalized plasma volume (Wistar rats; female rats, 300 mg/kg once daily 28 days, control 35.56 ± 1.46): 33.02 ± 0.28 mL/kg | normalized plasma volume (Wistar rats; male rats, 100 mg/kg once daily 28 days, control 33.44 ± 1.52): 31.55 ± 0.27 mL/kg | normalized plasma volume (Wistar rats; male rats, 300 mg/kg once daily 28 days, control 33.44 ± 1.52): 29.15 ± 0.02 mL/kg | effect on plasma volume or body weights (Wistar rats; oral, 28 days, male and female normal Wistar rats): did not cause significant increase | PPARα transactivation (human PPARα receptor): did not activate | PPARγ transactivation (human PPARγ receptor): no significant transactivation ability
